In brackets after ≈: the same amount, converted by molar mass.
Assay: Water-solubility test
Assay type: physicochemical
Settings: 22° C.; for solubility at 24 h: water, pH 5.5, water, thermodynamic from solid, ultrasonic mixing for 24 hours, pH5.5, average of two experiments

Row | solubility at 24 h [µg/mL] | Water solubility relative to compound (IV) (pH5.5, ratio versus compound (IV)) [times] | SMILES
1 | 0.0925 (≈ 0.226 µM) |  | Cc1cccc(NC(=O)Nc2ccc(-c3cncc4[nH]nc(N)c34)c3ccccc23)c1 [Compound (IV)]
2 | 0.64 (≈ 1.16 µM) | 6.9 | Cc1ccc(F)c(NC(=O)Nc2ccc(-c3ccc(OCCCN4CCCC4)c4[nH]nc(N)c34)c3ccccc23)c1 [Compound (V)]

— patent publication US9469639B2, “Naphthylurea derivatives and medical applications thereof” (RADIANT PHARMA & TECH. CO., LTD., priority 2013, dated 2016)
